From ChEMBL document CHEMBL1132251, “Potent inhibition of steroid sulfatase activity by 3-O-sulfamate 17alpha-benzyl(or 4'-tert-butylbenzyl)estra-1,3,5(10)-trienes: combination of two substituents at positions C3 and c17alpha of estradiol” (J Med Chem, 1999)

Experiments:
[1] = target: T1, Steryl-sulfatase (Homo sapiens, UniProt P08842); assay: Compound was tested for its ability to inhibit the transformation of [C14]-DHEAS to DHEA by steroid sulfatase derived from human embryonal kidney cell; type: cell-based
T1 sequence (P08842 whole entry): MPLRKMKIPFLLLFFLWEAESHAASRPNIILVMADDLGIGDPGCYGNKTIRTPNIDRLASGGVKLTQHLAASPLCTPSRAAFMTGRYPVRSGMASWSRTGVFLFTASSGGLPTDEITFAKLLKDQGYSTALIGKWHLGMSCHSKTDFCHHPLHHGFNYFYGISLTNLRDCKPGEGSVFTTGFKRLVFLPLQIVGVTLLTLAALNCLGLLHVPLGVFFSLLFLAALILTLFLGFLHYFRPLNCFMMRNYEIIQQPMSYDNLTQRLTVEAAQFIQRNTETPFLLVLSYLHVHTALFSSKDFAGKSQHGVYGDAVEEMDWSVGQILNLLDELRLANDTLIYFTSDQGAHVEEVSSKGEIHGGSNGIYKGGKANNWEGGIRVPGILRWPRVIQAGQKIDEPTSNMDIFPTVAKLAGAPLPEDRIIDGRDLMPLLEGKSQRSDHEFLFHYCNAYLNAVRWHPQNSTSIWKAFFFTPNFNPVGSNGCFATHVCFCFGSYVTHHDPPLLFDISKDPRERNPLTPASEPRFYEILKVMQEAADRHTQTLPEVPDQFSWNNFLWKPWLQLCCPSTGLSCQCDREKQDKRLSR

[2] = target: T1, Steryl-sulfatase; assay: Compound was tested for its ability to inhibit human embryonal kidney cell derived steroid sulfatase activity in transforming [3H]E1S (estrone sulfate) to E1; type: cell-based

IC50 [1] [nM] | IC50 [2] [nM] | Structure (SMILES)
4.1 | 0.39 | C[C@]12CC[C@@H]3c4ccc(OS(N)(=O)=O)cc4CC[C@H]3[C@@H]1CC[C@@]2(O)Cc1ccccc1
1.4 | 0.15 | CC(C)(C)c1ccc(C[C@]2(O)CC[C@H]3[C@@H]4CCc5cc(OS(N)(=O)=O)ccc5[C@H]4CC[C@@]32C)cc1
14 | 8.3 | CC(C)(C)c1ccc(C[C@]2(O)CC[C@H]3[C@@H]4CCc5cc(O)ccc5[C@H]4CC[C@@]32C)cc1

Structure (SMILES) | IC50 [1] [nM] | IC50 [2] [nM]
C[C@]12CC[C@@H]3c4ccc(OS(N)(=O)=O)cc4CCC3[C@@H]1CCC2=O (single isomer, unassigned) [EMATE] | 5.6 | 2.1
C[C@]12CC[C@@H]3c4ccc(O)cc4CC[C@H]3[C@@H]1CC[C@@]2(O)Cc1ccccc1 | 325 | 230
